# Results published in PMC10726920 (Cancer Medicine, 2023).
# Tested on: patients with acute lymphoblastic leukemia
# Test: Adverse events (CTCAE version 4.0), Phase II study NCI-9775 of sapanisertib monotherapy
# Format: in vivo
# Method: Responders could continue on the same dose or proceed to allogeneic hematopoietic cell transplant if available. Non‐responders (but tolerating drug) could increase their dose to 4 mg orally for 21 days every 28 days (dose level + 1) starting in Cycle 3 and 4 mg orally continuously (dose level + 2) starting in Cycle 5 (if they tolerated dose level + 1). Dose reduction was recommended for toxicity (dose level − 1: 2 mg daily for 21 days every 28 days; dose level − 2: 2 mg daily for 5 days/week for 3 weeks every 4 weeks). […] Intrathecal chemotherapy was allowed per institutional standard policies. In‐home blood glucose monitoring was performed daily to monitor blood sugar (a glucometer was given to every patient on the study). Discontinuation of therapy was recommended for disease progression, severe toxicity, lack of response, proceeding to hematopoietic cell transplant, or prolonged delay of the subsequent cycle (>1 month delay for therapy‐related toxicity or >2 months delay for unrelated toxicity).
# The primary endpoint was the proportion of successes, which was estimated by the number of successes divided by the total number of evaluable patients. Secondary endpoints of duration of response (CR or CRi) and overall survival (OS) were evaluated using Kaplan–Meier techniques; the frequency of proceeding to allogeneic stem cell transplant after achieving response and adverse events (AEs), as evaluated using reported the NCI Common Terminology Criteria for Adverse Events (CTCAE) version 4.0, were presented using descriptive statistics.
# [1] = Grade 3–4, at least possibly related
# [2] = Grade >2 hematological, abstract
# [3] = grade 3–4 non‐hematologic, abstract
# [4] = possibly related, B-Cell, 10 evaluable
# [5] = possibly related, T-Cell, 5 evaluable
# [6] = treatment-related, 15 evaluable
structure (smiles),measurement,setting,value
CC(C)n1nc(-c2ccc3oc(N)nc3c2)c2c(N)ncnc21 [sapanisertib],patients with a grade 3 or higher AE related to the study drug,15 evaluated,9 patients
same,patients with at least 1 grade 3 AE,15 evaluated,15 patients
same,"anemia, patients",[1],4
same,"leukocytosis, patients",[1],1
same,"leukopenia, patients",[1],2
same,"lymphopenia, patients",[1],2
same,"neutropenia, patients",[1],1
same,"thrombocytopenia, patients",[1],4
same,"abdominal pain, patients",Grade 3–4 treatment‐related,1
same,"anorexia, patients",Grade 3–4 treatment‐related,1
same,"bilirubin increase, patients",Grade 3–4 treatment‐related,1
same,"confusion, patients",Grade 3–4 treatment‐related,1
same,"delirium, patients",Grade 3–4 treatment‐related,1
same,"febrile neutropenia, patients",Grade 3–4 treatment‐related,1
same,"fibrinogen decrease, patients",Grade 3–4 treatment‐related,1
same,"hyperglycemia, patients",Grade 3–4 treatment‐related,2
same,"mucositis, patients",Grade 3–4 treatment‐related,3
same,"pneumonitis, patients",Grade 3–4 treatment‐related,1
same,"thoracic disease, patients",Grade 3–4 treatment‐related,1
same,"leukopenia, patients",[2],3
same,"lymphopenia, patients",[2],2
same,"neutropenia, patients",[2],1
same,"thrombocytopenia, patients",[2],1
same,patients with at least one grade ≥3 non‐hematologic AE,Six of 11 patients in clearance-toxicity analysis,54.5%
same,"Hyperglycemia, percent of patients","any grade, discussion",25%
same,"hyperglycemia, patients","any grade, discussion",4
same,Hyperglycemia G2,discussion,2 patients
same,Hyperglycemia G3,discussion,2 patients
same,median time to hyperglycemia,discussion,6 days
same,mucositis,discussion,3 patients
same,anorexia,[3],1 patient
same,confusion,[3],1 patient
same,hepatic failure,[3],1 patient
same,hyperglycemia,[3],2 patients
same,mucositis,[3],3 patients
same,pneumonitis,[3],1 patient
same,seizures,[3],1 patient
same,Abdominal pain grade 3,[4],0 (0%) N (%)
same,Abdominal pain grade 4,[4],0 (0%) N (%)
same,Abdominal pain grade 5,[4],0 (0%) N (%)
same,Anemia grade 3,[4],1 (10%) N (%)
same,Anemia grade 4,[4],0 (0%) N (%)
same,Anemia grade 5,[4],0 (0%) N (%)
same,Anorexia grade 3,[4],1 (10%) N (%)
same,Anorexia grade 4,[4],0 (0%) N (%)
same,Anorexia grade 5,[4],0 (0%) N (%)
same,Confusion grade 3,[4],1 (10%) N (%)
same,Confusion grade 4,[4],0 (0%) N (%)
same,Confusion grade 5,[4],0 (0%) N (%)
same,Fatigue grade 3,[4],1 (10%) N (%)
same,Fatigue grade 4,[4],0 (0%) N (%)
same,Fatigue grade 5,[4],0 (0%) N (%)
same,Febrile neutropenia grade 3,[4],1 (10%) N (%)
same,Febrile neutropenia grade 4,[4],0 (0%) N (%)
same,Febrile neutropenia grade 5,[4],0 (0%) N (%)
same,Hyperglycemia grade 3,[4],2 (20%) N (%)
same,Hyperglycemia grade 4,[4],0 (0%) N (%)
same,Hyperglycemia grade 5,[4],0 (0%) N (%)
same,Leukocytosis grade 3,[4],0 (0%) N (%)
same,Leukocytosis grade 4,[4],0 (0%) N (%)
same,Leukocytosis grade 5,[4],0 (0%) N (%)
same,Lymphocyte count decreased grade 3,[4],2 (20%) N (%)
same,Lymphocyte count decreased grade 4,[4],0 (0%) N (%)
same,Lymphocyte count decreased grade 5,[4],0 (0%) N (%)
same,Mucositis oral grade 3,[4],3 (30%) N (%)
same,Mucositis oral grade 4,[4],0 (0%) N (%)
same,Mucositis oral grade 5,[4],0 (0%) N (%)
same,"Neoplasms benign, mal, uncpec - Oth spec grade 3",[4],0 (0%) N (%)
same,"Neoplasms benign, mal, uncpec - Oth spec grade 4",[4],0 (0%) N (%)
same,"Neoplasms benign, mal, uncpec - Oth spec grade 5",[4],0 (0%) N (%)
same,Neutrophil count decreased grade 3,[4],0 (0%) N (%)
same,Neutrophil count decreased grade 4,[4],1 (10%) N (%)
same,Neutrophil count decreased grade 5,[4],0 (0%) N (%)
same,Platelet count decreased grade 3,[4],0 (0%) N (%)
same,Platelet count decreased grade 4,[4],1 (10%) N (%)
same,Platelet count decreased grade 5,[4],0 (0%) N (%)
same,Pneumonitis grade 3,[4],0 (0%) N (%)
same,Pneumonitis grade 4,[4],0 (0%) N (%)
same,Pneumonitis grade 5,[4],0 (0%) N (%)
same,"Resp, thoracic, mediastinal - Oth spec grade 3",[4],0 (0%) N (%)
same,"Resp, thoracic, mediastinal - Oth spec grade 4",[4],1 (10%) N (%)
same,"Resp, thoracic, mediastinal - Oth spec grade 5",[4],0 (0%) N (%)
same,White blood cell decreased grade 3,[4],0 (0%) N (%)
same,White blood cell decreased grade 4,[4],2 (20%) N (%)
same,White blood cell decreased grade 5,[4],0 (0%) N (%)
same,Abdominal pain grade 3,[5],1 (20%) N (%)
same,Abdominal pain grade 4,[5],0 (0%) N (%)
same,Abdominal pain grade 5,[5],0 (0%) N (%)
same,Anemia grade 3,[5],0 (0%) N (%)
same,Anemia grade 4,[5],0 (0%) N (%)
same,Anemia grade 5,[5],0 (0%) N (%)
same,Anorexia grade 3,[5],0 (0%) N (%)
same,Anorexia grade 4,[5],0 (0%) N (%)
same,Anorexia grade 5,[5],0 (0%) N (%)
same,Confusion grade 3,[5],0 (0%) N (%)
same,Confusion grade 4,[5],0 (0%) N (%)
same,Confusion grade 5,[5],0 (0%) N (%)
same,Fatigue grade 3,[5],0 (0%) N (%)
same,Fatigue grade 4,[5],0 (0%) N (%)
same,Fatigue grade 5,[5],0 (0%) N (%)
same,Febrile neutropenia grade 3,[5],0 (0%) N (%)
same,Febrile neutropenia grade 4,[5],0 (0%) N (%)
same,Febrile neutropenia grade 5,[5],0 (0%) N (%)
same,Hyperglycemia grade 3,[5],0 (0%) N (%)
same,Hyperglycemia grade 4,[5],0 (0%) N (%)
same,Hyperglycemia grade 5,[5],0 (0%) N (%)
same,Leukocytosis grade 3,[5],1 (20%) N (%)
same,Leukocytosis grade 4,[5],0 (0%) N (%)
same,Leukocytosis grade 5,[5],0 (0%) N (%)
same,Lymphocyte count decreased grade 3,[5],0 (0%) N (%)
same,Lymphocyte count decreased grade 4,[5],0 (0%) N (%)
same,Lymphocyte count decreased grade 5,[5],0 (0%) N (%)
same,Mucositis oral grade 3,[5],0 (0%) N (%)
same,Mucositis oral grade 4,[5],0 (0%) N (%)
same,Mucositis oral grade 5,[5],0 (0%) N (%)
same,"Neoplasms benign, mal, uncpec - Oth spec grade 3",[5],1 (20%) N (%)
same,"Neoplasms benign, mal, uncpec - Oth spec grade 4",[5],0 (0%) N (%)
same,"Neoplasms benign, mal, uncpec - Oth spec grade 5",[5],0 (0%) N (%)
same,Neutrophil count decreased grade 3,[5],0 (0%) N (%)
same,Neutrophil count decreased grade 4,[5],0 (0%) N (%)
same,Neutrophil count decreased grade 5,[5],0 (0%) N (%)
same,Platelet count decreased grade 3,[5],2 (40%) N (%)
same,Platelet count decreased grade 4,[5],1 (20%) N (%)
same,Platelet count decreased grade 5,[5],0 (0%) N (%)
same,Pneumonitis grade 3,[5],1 (20%) N (%)
same,Pneumonitis grade 4,[5],0 (0%) N (%)
same,Pneumonitis grade 5,[5],0 (0%) N (%)
same,"Resp, thoracic, mediastinal - Oth spec grade 3",[5],0 (0%) N (%)
same,"Resp, thoracic, mediastinal - Oth spec grade 4",[5],0 (0%) N (%)
same,"Resp, thoracic, mediastinal - Oth spec grade 5",[5],0 (0%) N (%)
same,White blood cell decreased grade 3,[5],0 (0%) N (%)
same,White blood cell decreased grade 4,[5],0 (0%) N (%)
same,White blood cell decreased grade 5,[5],0 (0%) N (%)
same,Abdominal pain grade 1,[6],0 (0) N (%)
same,Abdominal pain grade 2,[6],0 (0) N (%)
same,Abdominal pain grade 3,[6],1 (7) N (%)
same,Abdominal pain grade 4,[6],0 (0) N (%)
same,Abdominal pain grade 5,[6],0 (0) N (%)
same,Anal mucositis grade 1,[6],0 (0) N (%)
same,Anal mucositis grade 2,[6],1 (7) N (%)
same,Anal mucositis grade 3,[6],0 (0) N (%)
same,Anal mucositis grade 4,[6],0 (0) N (%)
same,Anal mucositis grade 5,[6],0 (0) N (%)
same,Anemia grade 1,[6],0 (0) N (%)
same,Anemia grade 2,[6],0 (0) N (%)
same,Anemia grade 3,[6],4 (27) N (%)
same,Anemia grade 4,[6],0 (0) N (%)
same,Anemia grade 5,[6],0 (0) N (%)
same,Anorexia grade 1,[6],0 (0) N (%)
same,Anorexia grade 2,[6],1 (7) N (%)
same,Anorexia grade 3,[6],1 (7) N (%)
same,Anorexia grade 4,[6],0 (0) N (%)
same,Anorexia grade 5,[6],0 (0) N (%)
same,Anxiety grade 1,[6],1 (7) N (%)
same,Anxiety grade 2,[6],0 (0) N (%)
same,Anxiety grade 3,[6],0 (0) N (%)
same,Anxiety grade 4,[6],0 (0) N (%)
same,Anxiety grade 5,[6],0 (0) N (%)
same,Aspartate aminotransferase increased grade 1,[6],1 (7) N (%)
